Measurements taken from patent US9526795B2, “N-BOC-dendrimers and their conjugates” (Annam Biosciences, LLC, priority 2012, dated 2016).

Tested on: ovarian cancer cell lines
Assay: doxorubicin-dendrimer-folate uptake in ovarian cancer cells
Type: cell-based
Conditions: FIG. 8; compared with doxorubicin and doxorubicin-(folate)1; folate-quenching correction
Method: Ovarian cancer cells were purchased from ATCC (CRL-6322, ATCC American Type Culture Collection, Rockville, Md.) and were grown in Dulbecco's modified Eagle's medium (DMEM) with 10% fetal bovine serum and 100 units/mL penicillin. The cells were grown at 37° C. in 5% CO2 environment. The culture medium was removed and discarded. The cells were rinsed with Dulbecco Phosphate Buffer Solution (DPBS), Trypsin-ethylenediaminetetra-acetic acid (EDTA) solution (0.5 ml) was added, and the cells were observed under an inverted microscope to make sure that they were dispersed. Complete growth medium (6.0 to 8.0 ml) was added, and the cells were aspirated by gently pipetting. The cell suspension in appropriate aliquots was transferred to new culture plates. The cells were allowed to grow at 37° C. in 5% CO2 for 24 hours before further experiments. […]
The evaluation of doxorubicin-dendrimer-folate uptake is conducted by using a literature procedure (Kim D, Lee E S, Oh K T, Gao Z G, Bae Y H. Doxorubicin-loaded polymeric micelle overcomes multidrug resistance of cancer by double-targeting folate receptor and early endosomal pH. Small. 2008 November; 4(11):2043-50) and folate-quenching correction was adjusted based on a literature procedure (Husseini G. A., 2012. Folic Acid Quenches Doxorubicin Fluorescence. Advanced Science Letters. 7:726).

For `COc1cccc2c1C(=O)c1c(O)c3c(c(O)c1C2=O)C[C@@](O)(/C(CO)=N/NC(=O)CCCC(=O)NCCCOCCOCCOCCCN(CCC(=O)NCCNC(=O)CCC(NC(=O)c1ccc(NCc2cnc4c(=O)[nH]c(N)nc4n2)cc1)C(=O)O)CCC(=O)NCCNC(=O)CCC(NC(=O)c1ccc(NCc2cnc4c(=O)[nH]c(N)nc4n2)cc1)C(=O)O)C[C@H]3O[C@H]1C[C@@H](N)[C@@H](O)[C@@H](C)O1` (stereo partly shown) [doxorubicin-dendrimer-(folate)2, doxorubicin-hydrazine-glutaric acid-PEG3-dendrimer-2-folates], the “uptake by ovarian cancer cell lines” value was “superior uptake”.
